Results reported in ChEMBL document CHEMBL1201862, “PubChem BioAssay data set” (2004).
Where a name gives a salt, the structure may show the parent alone. Activity calls are given as the source filed them.

Legend:
[1] = biological target: Voltage-gated inwardly rectifying potassium channel KCNH2 (Homo sapiens, UniProt Q12809); details: Potency;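 further: confirmatory quantitative high-throughput screen measuring inhibition of hERG channel activity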
[2] = biological target: T1, Carboxy-terminal domain RNA polymerase II polypeptide A small phosphatase 1 (Homo sapiens, UniProt Q9GZU7); assay: inhibitors of CTDSP1, concentration-response testing, biochemical assay, absorbance-based, actives from ultra-high-throughput screening (AID 540297); assay type: functional
T1 sequence (Q9GZU7 whole entry): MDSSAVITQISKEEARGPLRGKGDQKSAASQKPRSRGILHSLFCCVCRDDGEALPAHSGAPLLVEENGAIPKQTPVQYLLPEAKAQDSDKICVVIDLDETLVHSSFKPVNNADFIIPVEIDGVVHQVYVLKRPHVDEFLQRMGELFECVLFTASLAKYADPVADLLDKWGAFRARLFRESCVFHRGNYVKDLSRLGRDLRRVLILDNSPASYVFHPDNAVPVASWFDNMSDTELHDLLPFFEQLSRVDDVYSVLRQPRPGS

Coagulation factor XII = biological target: T2, Coagulation factor XII (Homo sapiens, UniProt P00748); assay type: functional;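 further: activated factor XIIa alpha cleaving a fluorogenic AMC peptide substrate; inhibitor potency from loss of enzyme activity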
T2 sequence (P00748 whole entry): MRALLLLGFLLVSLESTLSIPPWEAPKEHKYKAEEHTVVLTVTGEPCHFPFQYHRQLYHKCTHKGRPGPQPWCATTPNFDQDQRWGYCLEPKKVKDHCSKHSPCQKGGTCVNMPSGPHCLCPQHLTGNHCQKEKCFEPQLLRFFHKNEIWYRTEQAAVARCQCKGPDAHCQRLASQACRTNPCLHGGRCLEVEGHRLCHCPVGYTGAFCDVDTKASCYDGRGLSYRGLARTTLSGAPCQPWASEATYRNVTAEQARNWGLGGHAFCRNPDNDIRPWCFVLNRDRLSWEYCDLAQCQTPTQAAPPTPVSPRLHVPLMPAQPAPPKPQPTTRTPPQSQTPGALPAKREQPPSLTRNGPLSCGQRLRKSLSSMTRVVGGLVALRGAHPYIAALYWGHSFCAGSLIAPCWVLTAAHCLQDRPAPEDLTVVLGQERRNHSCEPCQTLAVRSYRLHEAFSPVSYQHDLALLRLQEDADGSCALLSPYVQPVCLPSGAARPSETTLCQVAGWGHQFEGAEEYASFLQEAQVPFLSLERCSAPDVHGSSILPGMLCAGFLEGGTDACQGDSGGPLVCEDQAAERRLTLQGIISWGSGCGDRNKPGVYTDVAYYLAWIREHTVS

[3] = biological target: T3, High affinity choline transporter 1 (Homo sapiens, UniProt Q9GZV3); assay: CHT inhibitors, dose response, cell-based, 5-point CRC, membrane potential dye (AID 504840); assay type: functional
T3 sequence (Q9GZV3 whole entry): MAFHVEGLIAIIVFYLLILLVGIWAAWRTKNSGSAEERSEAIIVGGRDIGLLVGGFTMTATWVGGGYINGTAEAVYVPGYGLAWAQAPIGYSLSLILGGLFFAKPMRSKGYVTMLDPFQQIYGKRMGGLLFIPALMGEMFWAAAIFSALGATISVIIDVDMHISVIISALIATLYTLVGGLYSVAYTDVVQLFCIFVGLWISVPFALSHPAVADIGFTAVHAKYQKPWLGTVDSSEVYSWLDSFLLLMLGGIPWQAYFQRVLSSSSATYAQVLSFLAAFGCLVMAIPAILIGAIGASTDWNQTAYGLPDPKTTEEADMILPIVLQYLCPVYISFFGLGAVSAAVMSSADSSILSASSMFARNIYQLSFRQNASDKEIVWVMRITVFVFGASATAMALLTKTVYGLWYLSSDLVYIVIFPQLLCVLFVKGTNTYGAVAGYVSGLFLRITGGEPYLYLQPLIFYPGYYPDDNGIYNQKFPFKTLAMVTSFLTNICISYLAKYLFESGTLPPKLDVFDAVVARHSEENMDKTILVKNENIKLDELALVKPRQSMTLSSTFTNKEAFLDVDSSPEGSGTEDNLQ

[4] = biological target: T3, High affinity choline transporter 1; assay: CHT inhibitors, dose response, cell-based, 10-point CRC, membrane potential dye (AID 588401); assay type: functional;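 further: membrane potential dye fluorescence of choline-evoked depolarization via CHT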
[5] = C. albicans growth with fluconazole, confirmation, fluorescence, retest (AID 2467); assay type: functional, cell-based
[6] = test system: Streptococcus sp. 'group A'; assay: growth inhibition of control SK(-) GAS strain, dose response, counter-screen for streptokinase expression inhibitor project, luminescence, kanamycin, BacTiterGlo, confirmation (AID 1900); assay type: functional, organism-based
[7] = NIH-3T3 fibroblast cytotoxicity, dose response, cytotoxicity control, cell-based, fluorescence, Alamar Blue, secondary assay (AID 2327); assay type: functional;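 further: NIH-3T3 mouse fibroblasts cultured with fluconazole at 8 µg/mL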
[8] = biological target: T4, Serine/threonine-protein phosphatase (Candida dubliniensis (strain CD36 / CBS 7987 / NCPF 3949 / NRRLY-17841) (Yeast), UniProt B9W6M3); assay: calcineurin pathway inhibitors in yeast reporter, dose response, S. cerevisiae, CDRE-lacZ, luminescence, secondary (AID 2388); assay type: functional, cell-based;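 further: yeast reporter cells carrying a calcineurin-responsive lacZ construct stimulated with calcium chloride; luminescent beta-galactosidase reporter signal in whole cells rather than isolated phosphatase activity; potency for inhibition where a drop in reporter signal means calcineurin blockade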
T4 sequence (B9W6M3 whole entry): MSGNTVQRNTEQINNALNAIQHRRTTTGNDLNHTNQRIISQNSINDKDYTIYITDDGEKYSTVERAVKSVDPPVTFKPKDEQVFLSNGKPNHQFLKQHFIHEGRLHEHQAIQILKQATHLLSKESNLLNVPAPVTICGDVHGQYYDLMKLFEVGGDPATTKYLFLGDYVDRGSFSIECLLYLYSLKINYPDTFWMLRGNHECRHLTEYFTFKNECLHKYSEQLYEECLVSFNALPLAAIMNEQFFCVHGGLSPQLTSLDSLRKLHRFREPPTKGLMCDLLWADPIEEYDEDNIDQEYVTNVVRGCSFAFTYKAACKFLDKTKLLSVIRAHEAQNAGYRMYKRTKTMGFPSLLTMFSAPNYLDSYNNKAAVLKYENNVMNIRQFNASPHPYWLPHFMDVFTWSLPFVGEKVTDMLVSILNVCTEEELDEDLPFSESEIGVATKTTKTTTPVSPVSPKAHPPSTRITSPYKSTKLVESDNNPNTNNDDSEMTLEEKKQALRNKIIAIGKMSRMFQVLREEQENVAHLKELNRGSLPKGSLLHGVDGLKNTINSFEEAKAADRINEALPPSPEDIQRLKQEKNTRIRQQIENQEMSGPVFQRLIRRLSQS

[9] = biological target: Heat shock protein HSP 90-alpha (Homo sapiens, UniProt P07900); assay type: functional, organism-based
[10] = Luminescence Cell-Based Dose Retest to Confirm Inhibitors of Cancer Stem Cells. [Related pubchem assays (depositor defined):AID2717, AID2721]; assay type: functional; details: Homo sapiens
Streptococcus = assay: Group A Streptococcus viability loss, dose response, counter-screen for streptokinase expression inhibitor project, luminescence, BacTiterGlo (AID 1915); assay type: functional, organism-based;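 further: potency for reduction of bacterial viability or growth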
[11] = biological target: T5, Short transient receptor potential channel 4 (Mus musculus, UniProt Q9QUQ5); assay: mouse TRPC4 channel inhibitors, dose response, cell-based, HEK293 TRPC4/mu-opioid, Fluo-4 calcium (AID 434942); assay type: functional;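 further: potency of inhibitors blocking the TRPC4 calcium response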
T5 sequence (Q9QUQ5 whole entry): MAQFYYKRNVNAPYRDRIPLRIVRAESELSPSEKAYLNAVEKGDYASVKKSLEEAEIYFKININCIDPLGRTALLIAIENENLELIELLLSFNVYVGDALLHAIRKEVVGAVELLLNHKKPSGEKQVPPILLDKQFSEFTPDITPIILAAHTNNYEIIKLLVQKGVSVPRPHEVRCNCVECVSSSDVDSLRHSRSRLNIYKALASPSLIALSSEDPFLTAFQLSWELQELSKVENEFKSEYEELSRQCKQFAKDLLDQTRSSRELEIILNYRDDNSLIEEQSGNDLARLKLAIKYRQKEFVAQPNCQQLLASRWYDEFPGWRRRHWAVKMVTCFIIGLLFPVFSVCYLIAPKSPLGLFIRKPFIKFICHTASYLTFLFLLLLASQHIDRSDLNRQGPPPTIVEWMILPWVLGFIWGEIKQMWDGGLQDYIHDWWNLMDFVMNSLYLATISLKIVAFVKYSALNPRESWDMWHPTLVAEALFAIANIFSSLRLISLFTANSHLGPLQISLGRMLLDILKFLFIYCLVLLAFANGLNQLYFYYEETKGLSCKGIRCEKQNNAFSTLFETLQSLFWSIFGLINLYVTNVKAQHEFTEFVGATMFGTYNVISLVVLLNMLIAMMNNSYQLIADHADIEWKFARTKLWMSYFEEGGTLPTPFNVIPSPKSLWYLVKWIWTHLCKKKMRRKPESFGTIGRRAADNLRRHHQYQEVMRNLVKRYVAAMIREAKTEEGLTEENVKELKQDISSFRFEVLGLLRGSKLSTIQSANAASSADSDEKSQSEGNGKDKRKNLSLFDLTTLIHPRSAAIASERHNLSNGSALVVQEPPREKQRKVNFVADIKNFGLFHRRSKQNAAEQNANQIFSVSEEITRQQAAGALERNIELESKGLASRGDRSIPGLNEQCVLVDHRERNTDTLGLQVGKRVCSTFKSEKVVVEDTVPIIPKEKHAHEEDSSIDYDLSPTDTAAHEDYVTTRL

Hexokinase = biological target: T6, Hexokinase (Trypanosoma brucei, UniProt Q38C41); assay: Confirmation assay for inhibitors of Trypanosoma brucei hexokinase 1-Analogue-first series. [Related pubchem assays (depositor defined):AID1430, AID1632, AID2516, AID2560, AID2579, AID2600, AID449725, AID492951]; assay type: functional
T6 sequence (Q38C41 whole entry): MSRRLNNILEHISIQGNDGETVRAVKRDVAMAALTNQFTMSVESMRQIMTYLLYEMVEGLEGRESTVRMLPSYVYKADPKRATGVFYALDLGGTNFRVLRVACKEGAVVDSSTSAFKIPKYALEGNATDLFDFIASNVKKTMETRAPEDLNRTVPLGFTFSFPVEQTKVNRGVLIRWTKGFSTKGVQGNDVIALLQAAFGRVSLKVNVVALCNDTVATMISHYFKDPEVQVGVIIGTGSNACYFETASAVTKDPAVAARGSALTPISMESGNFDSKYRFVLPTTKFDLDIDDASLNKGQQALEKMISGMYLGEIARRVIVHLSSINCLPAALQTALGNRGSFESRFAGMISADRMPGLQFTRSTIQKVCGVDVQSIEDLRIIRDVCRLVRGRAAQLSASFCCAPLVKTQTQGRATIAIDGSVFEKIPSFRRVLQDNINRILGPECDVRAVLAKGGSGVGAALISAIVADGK

Activin receptor type-1 = biological target: T7, Activin receptor type-1 (Homo sapiens, UniProt Q04771); assay: Navigating the Kinome. Panel member name: ACVR1; assay type: functional
T7 sequence (Q04771 whole entry): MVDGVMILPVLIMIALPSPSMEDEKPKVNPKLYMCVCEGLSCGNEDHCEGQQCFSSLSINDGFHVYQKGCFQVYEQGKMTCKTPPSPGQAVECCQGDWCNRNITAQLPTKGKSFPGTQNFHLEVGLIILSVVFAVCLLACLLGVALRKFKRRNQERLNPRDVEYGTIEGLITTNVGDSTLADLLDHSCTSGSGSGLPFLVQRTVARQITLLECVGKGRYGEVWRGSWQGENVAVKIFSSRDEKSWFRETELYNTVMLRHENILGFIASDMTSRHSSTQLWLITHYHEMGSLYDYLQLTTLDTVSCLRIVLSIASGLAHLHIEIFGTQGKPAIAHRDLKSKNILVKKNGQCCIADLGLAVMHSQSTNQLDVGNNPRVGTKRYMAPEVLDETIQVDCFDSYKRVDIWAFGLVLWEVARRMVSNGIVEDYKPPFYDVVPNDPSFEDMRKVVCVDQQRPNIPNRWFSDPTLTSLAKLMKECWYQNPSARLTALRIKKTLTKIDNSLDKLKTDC

Sequence of Voltage-gated inwardly rectifying potassium channel KCNH2 (Q12809 whole entry, the tested form may be a part): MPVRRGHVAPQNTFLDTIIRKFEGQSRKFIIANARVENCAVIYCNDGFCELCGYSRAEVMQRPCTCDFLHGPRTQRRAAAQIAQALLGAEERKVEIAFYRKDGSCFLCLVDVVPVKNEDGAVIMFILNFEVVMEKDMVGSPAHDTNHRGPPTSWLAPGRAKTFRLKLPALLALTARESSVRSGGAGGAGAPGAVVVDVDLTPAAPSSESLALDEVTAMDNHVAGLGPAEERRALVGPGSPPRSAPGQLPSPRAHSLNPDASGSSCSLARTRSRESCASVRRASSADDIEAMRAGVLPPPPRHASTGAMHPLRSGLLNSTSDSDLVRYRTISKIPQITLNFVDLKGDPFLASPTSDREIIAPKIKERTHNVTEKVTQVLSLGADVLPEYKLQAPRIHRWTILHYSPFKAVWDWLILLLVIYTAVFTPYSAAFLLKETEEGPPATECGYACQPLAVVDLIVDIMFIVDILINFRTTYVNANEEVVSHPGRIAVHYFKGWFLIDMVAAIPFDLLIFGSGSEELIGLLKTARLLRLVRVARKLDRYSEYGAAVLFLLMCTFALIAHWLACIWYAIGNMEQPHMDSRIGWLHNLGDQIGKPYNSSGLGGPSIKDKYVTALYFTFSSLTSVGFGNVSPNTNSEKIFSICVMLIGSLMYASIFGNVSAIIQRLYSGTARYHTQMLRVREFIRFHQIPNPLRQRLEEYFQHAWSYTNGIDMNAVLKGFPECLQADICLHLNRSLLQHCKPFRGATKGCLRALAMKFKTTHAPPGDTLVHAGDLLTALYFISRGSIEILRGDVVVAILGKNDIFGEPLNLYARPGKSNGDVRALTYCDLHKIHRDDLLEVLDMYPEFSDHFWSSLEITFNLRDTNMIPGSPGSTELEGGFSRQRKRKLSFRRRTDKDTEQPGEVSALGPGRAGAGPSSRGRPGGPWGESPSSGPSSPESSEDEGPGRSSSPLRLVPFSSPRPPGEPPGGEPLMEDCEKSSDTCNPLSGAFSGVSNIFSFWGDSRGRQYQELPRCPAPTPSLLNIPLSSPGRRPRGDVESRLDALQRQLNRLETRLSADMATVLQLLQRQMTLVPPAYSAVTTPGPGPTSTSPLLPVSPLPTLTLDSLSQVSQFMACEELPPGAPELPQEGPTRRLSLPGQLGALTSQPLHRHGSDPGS

NCCNS(=O)(=O)c1cccc2c(Cl)cccc12
AC50 [1]: 22.4 µM (inconclusive)

O=C(COc1cccnc1[N+](=O)[O-])Nc1ncc(Cl)cc1Cl
IC50 [2]: 6.27 µM (active)

CCCC(C)NC(=O)Cc1ccccc1 (stereo unspecified)
IC50 (Coagulation factor XII): > 50 µM (inactive)

CC1CCCCC1NC(=O)c1cccc(S(=O)(=O)N2CCN(C)CC2)c1 (stereo unspecified)
IC50 [3]: 4.37 µM (active) | IC50 [4]: 4.22 µM (active)

CN(C)CCCCSC(=N)N
AC50 [1]: 35.5 µM (inconclusive)

O=C(NNC1=C(C(=O)C(F)(F)F)CCC1)c1ccc(Br)cc1
EC50 [5]: 152 nM (active) | EC50 [6]: 1.02 µM (active) | IC50 [3]: 11.2 µM (active) | EC50 [7]: > 75 µM (inactive) | EC50 [8]: > 180 µM (inactive) | AC50 [9]: 1.11 µM (active) | AC50 [10]: 3.16 µM (active) | EC50 (Streptococcus): 2.23 µM (active)

O=C1c2ccccc2C(=O)N1OS(=O)(=O)c1ccccc1
IC50 (Coagulation factor XII): 1.61 µM (active)

Cc1ccc(C)c2[nH]c(=O)c(CN(Cc3nnnn3C3CCCCC3)CC3CCCO3)cc12 (stereo unspecified)
IC50 (Coagulation factor XII): > 50 µM (inactive) | EC50 [11]: 1.68 µM (active)

O=C(NN1C(=O)/C(=C/c2cccs2)SC1=S)c1ccncc1
IC50 [3]: 7.57 µM (active) | IC50 [4]: 7.13 µM (active)

CC(C)(C)Cc1nnc(NC(=O)Cc2cccs2)s1
IC50 [2]: 4.36 µM (active)

O=C(NNc1cc(Cl)ccc1Cl)c1c(F)cccc1Cl
IC50 (Coagulation factor XII): > 50 µM (inactive)

Cc1nn(CCc2nnn[nH]2)c2nc(-c3ccccc3)cc(C(F)(F)F)c12
IC50 [2]: 7.45 µM (active)

CCOC(=O)C1=C(C)c2ccccc2OC1(C(=O)OCC)c1ccccc1 (stereo unspecified)
IC50 [2]: 34.2 µM (active)

CC(C)(C)c1ccc(C(=O)Nc2cc(Cl)ccc2O)cc1
IC50 (Hexokinase): 25 µM (inactive)

COc1ccc(C(=O)Nc2cc(I)ccc2C(=O)O)cc1
IC50 (Hexokinase): 14.2 µM (active)

O=C(Cn1sc2ccccc2c1=O)Nc1ccccc1I
IC50 (Hexokinase): 4.75 µM (active)

O=C1c2cccc(Br)c2SCN1c1ccccc1
IC50 (Hexokinase): > 25 µM (inactive)

OCCN1CCN(c2ncnc3scc(-c4ccc(F)cc4)c23)CC1
IC50 [3]: 6.59 µM (active) | IC50 [4]: 7.51 µM (active)

O=C(Nc1cccc(Cl)c1)Nc1ncc(CCNc2ncnc3ccsc23)s1 [SNS-314]
Ki (Activin receptor type-1): > 3.98 µM (inactive)

CCN(CC)CCNC(=O)c1cc(S(C)(=O)=O)ccc1OC [TIAPRIDE HYDROCHLORIDE]
AC50 [1]: 35.5 µM (inconclusive)
